In article PMC5537305, “Photo-enhanced Aqueous Solubilization of an Azo-compound” (Scientific Reports, 2017):
Where “and” joins values, the source holds several entries; their conditions need not be identical. Identical values can stand only once. Like-named read-outs stand apart in the source and are kept apart here.

Assay: Aqueous solubilization in 1/15 M phosphate buffer (pH 7.4) under UV, visible light or dark, with cis ratio in solution by HPLC
Assay type: physicochemical
Conditions: for increase of aqueous solubilization, UV irradiation vs dark: mercury lamp 0.5 mW/cm2; for Aqueous solubilized 3: successive irradiations
Experimental: Table S3. Cis ratio and aqueous solubilization of 3 under UV irradiation, under visible light irradiation, and in […]
Compound 3 was shaken at 37 °C under UV irradiation, under visible light irradiation, and in the dark. UV irradiation was performed with a mercury lamp (0.5 mW/cm2). Cis ratio in the aqueous solution was evaluated from the peak areas in HPLC immediately after filtration.
Table S4. Aqueous solubilization and cis ratio of 3 under irradiation at various wavelengths through filters of […]
Illumination was performed with a xenon lamp using repeated cycles of irradiation and shaking (5000 flashes, then shaking for 10 sec) through filters of various bandwidths at room temperature (20-22 °C) for 1 h. The cis ratio in the aqueous solution was evaluated by HPLC immediately after filtration, based on peak area.
Table S5. Aqueous solubilization of 3 under UV irradiation at various intensity levels.
Sample irradiation was conducted using 365 nm LED light (max light intensity: 290 mW/cm2) at 37 °C for 1 […]
Sample irradiations were conducted with the white light through a filter cutting off wavelengths below 560 nm, or with 365 nm LED light (344 mW/cm2) at 37 °C for 1 h.
Table S7. Aqueous dissolution of UV-irradiated crystals of 3 measured in the dark, and the cis ratio contained […]
Crystals of 3 were irradiated with 365 nm LED light (344 mW/cm2) at 37 °C for 3 h.
The UV-irradiated crystals and unirradiated crystals were each shaken in phosphate buffer in the dark at 37 °C for 1 h.
Physicochemical properties […]
Compound 3 (about 0.2 mg) was ground and taken up in 1/15 M phosphate buffer (pH 7.4, 1.0 mL) in a 10 mL glass tube. The suspension was incubated under ultrasound irradiation for 10 min, and shaken in a temperature controllable incubator located in a dark room for the indicated time at the indicated temperature.
With shaking on a plate shaker, a sample was irradiated with a 365 nm mercury lamp (4 W, UVP compact […]
white LED light (5 W, Nikki Trading Corp., NLSS05BM, 68 and 54 mW/cm2 at 450 and 540 nm, respectively) through a filter cutting off wavelengths below 560 nm (Atto Corp. YA-3). Irradiation was done from the top of the sample glass tube. Then, the suspension was filtered through a Millipore Millex-LG (0.20 […]
For irradiation at various UV wavelengths, 3 (about 0.1 mg) was ground and taken up in 1/15 M phosphate buffer (pH 7.4, 0.2 mL) in a well of a 96-well white plate. Illumination over a range of wavelength from 355-540 nm was performed using a plate reader EnVision equipped with a xenon flash lamp (35 W, 500 Hz), with excitation filters of appropriate bandwidths.

CC(C)n1nc(/N=N/c2ccccc2)c2c(N)ncnc21 [Compound 3]
cis ratio in solution after UV irradiation (365 nm LED, roughly constant, independent of light intensity): ~90% | increase of aqueous solubilization, UV irradiation vs dark (0.5 h, 37 °C): 3.5 fold | increase of aqueous solubilization, UV irradiation vs dark (1 h, 37 °C): 5.0 fold | increase of aqueous solubilization, UV irradiation vs dark (5 h, 37 °C): 7.1 fold and 7 fold | cis ratio (Dark, 37 °C, shake time 0.5 h): 6% | cis ratio (Dark, 37 °C, shake time 1 h): 4% | cis ratio (Dark, 37 °C, shake time 5 h): 7% | cis ratio (UV light (mercury lamp 0.5 mW/cm2), 37 °C, shake time 0.5 h): 77% | cis ratio (UV light (mercury lamp 0.5 mW/cm2), 37 °C, shake time 1 h): 80% | cis ratio (UV light (mercury lamp 0.5 mW/cm2), 37 °C, shake time 3 h): 80% | cis ratio (UV light (mercury lamp 0.5 mW/cm2), 37 °C, shake time 5 h): 75% | cis ratio (UV light (mercury lamp 0.5 mW/cm2), 37 °C, shake time 8 h): 87% | cis ratio (Visible light, 37 °C, shake time 1 h): 25% | cis ratio (Visible light, 37 °C, shake time 5 h): 25% | cis ratio (light intensity 0.00 mW/cm2, 365 nm LED, 37 °C, 1 h): 4% | cis ratio (light intensity 4.56 mW/cm2, 365 nm LED, 37 °C, 1 h): 89% | cis ratio (light intensity 29.0 mW/cm2, 365 nm LED, 37 °C, 1 h): 92% | cis ratio (light intensity 290 mW/cm2, 365 nm LED, 37 °C, 1 h): 90% | increase of aqueous solubilization compared with the dark condition (maximum irradiation intensity 290 mW/cm2, 365 nm LED, 37 °C, 1 h): 23 fold | increase of aqueous solubilization by exposure to UV light (phosphate buffer, compared to without irradiation, up to): up to 20 fold | solubility at 1 h (phosphate buffer, pH 7.4, 46 °C, after 1 h, read-out: aqueous solubility): 3.5 µg/mL | solubility at 24 h (phosphate buffer, pH 7.4, 46 °C, after 24 h): 3.2 µg/mL | solubility at 1 h (phosphate buffer, pH 7.4, Dark, 37 °C, shake time 1 h, read-out: Solubility): 3 µg/mL | solubility at 0.5 h (phosphate buffer, pH 7.4, UV light (mercury lamp 0.5 mW/cm2), 37 °C, shake time 0.5 h, read-out: Solubilized 3): 11.1 µg/mL | solubility at 1 h (phosphate buffer, pH 7.4, UV light (mercury lamp 0.5 mW/cm2), 37 °C, shake time 1 h, read-out: Solubilized 3): 14.9 µg/mL | solubility at 3 h (phosphate buffer, pH 7.4, UV light (mercury lamp 0.5 mW/cm2), 37 °C, shake time 3 h, read-out: Solubilized 3): 18.4 µg/mL | solubility at 5 h (phosphate buffer, pH 7.4, UV light (mercury lamp 0.5 mW/cm2), 37 °C, shake time 5 h, read-out: Solubilized 3): 24.7 µg/mL | solubility at 8 h (phosphate buffer, pH 7.4, UV light (mercury lamp 0.5 mW/cm2), 37 °C, shake time 8 h, read-out: Solubilized 3): 24.2 µg/mL | solubility at 1 h (phosphate buffer, pH 7.4, Visible light, 37 °C, shake time 1 h, read-out: Solubilized 3): 4.6 µg/mL | solubility at 5 h (phosphate buffer, pH 7.4, Visible light, 37 °C, shake time 5 h, read-out: Solubilized 3): 5.1 µg/mL | solubility at 1 h (phosphate buffer, pH 7.4, light intensity 4.56 mW/cm2, 365 nm LED, 37 °C, 1 h, read-out: Aqueous solubilized 3): 12.3 µg/mL | solubility at 1 h (phosphate buffer, pH 7.4, light intensity 29.0 mW/cm2, 365 nm LED, 37 °C, 1 h, read-out: Aqueous solubilized 3): 36.2 µg/mL | solubility at 1 h (phosphate buffer, pH 7.4, light intensity 290 mW/cm2, 365 nm LED, 37 °C, 1 h, read-out: Aqueous solubilized 3): 69.6 µg/mL | solubility (phosphate buffer, pH 7.4, phosphate buffer, in the dark, after 0.5, 1 and 5 h at 37 °C, read-out: aqueous solubility): ~3 µg/mL | solubility (phosphate buffer, pH 7.4, white-light irradiation, after 1 and 5 h, 37 °C, read-out: solubilization): ~5 µg/mL | Aqueous solubilized 3 (step 1: visible (white light, filter cutting off below 560 nm), 37 °C, 1 h): 1.0 fold | Aqueous solubilized 3 (step 2: UV 365 nm LED 344 mW/cm2, 37 °C, 1 h): 35.5 fold | Aqueous solubilized 3 (step 3: visible, 37 °C, 1 h): 2.3 fold | Aqueous solubilized 3 (step 4: UV 365 nm LED 344 mW/cm2, 37 °C, 1 h): 37.9 fold | Aqueous solubilized 3 (step 5: visible, 37 °C, 1 h): 2.9 fold
